Reference: patent US20100256214A1, “EPH RECEPTOR LIGANDS AND METHODS OF USE” (Burnham Institute for Medical Research, priority 2009, published 2010)

Assays:
COS and HT22 cells = assay: Overall tyrosine phosphorylation in COS and HT22 cells; type: cell-based
Procedure: Measurement of Receptor Tyrosine Phosphorylation in Cells—HT22 neuronal cells, which endogenously express EphA4, are derived from immortalized mouse hippocampal neurons (Li et al. (1997) Neuron 19(2), 453-463). COST cells, which endogenously express EphA2, EphB2 and the EGF receptor (EGFR), were obtained from ATCC. Both cell lines were grown in Dulbecco's Modified Eagle's Medium (DMEM) (Mediatech, Inc, Herndon, Va.) with 10% fetal bovine serum (FBS) (Hyclone, Logan, Utah) and Pen/Strep. For EphA4 immunoprecipitations, HT22 cells were serum-starved overnight in 0.5% FBS in DMEM and incubated for 15 min with the compounds or DMSO as a control. The cells were then stimulated with 0.5 μg/mL ephrin-A5 Fc, ephrin-A4 Fc or Fc for 20 min in the continued presence of the compounds. After stimulation the cells were lysed in modified RIPA buffer (1% Triton X-100, 1% Na deoxycholate; 0.1% SDS; 20 mM Tris; 150 mM NaCl; 1 mM EDTA) containing […], 1 μM sodium pervanadate and protease inhibitors. The protein concentration was calculated using the BCA protein assay kit (Pierce Biotecnology, Rockford, Ill.). Cell lysates were immunoprecipitated with 4 μg anti-EphA4 antibody (Soans et al. (1994) Oncogene 9(11), 3353-3361). For EphA2 and EphB2 immunoprecipitations, serum-starved COS7 cells were stimulated with 0.1 μg/mL ephrin-A1 Fc or 0.5 μg/mL ephrin-B2 Fc, respectively. […]

HT22 neuronal cells = assay: MTT cytotoxicity assay; type: cell-based, mouse; settings: concentrations up to 400 μM for several days
Procedure: FIG. 7. HT22 neuronal cells were grown in the presence of the indicated concentrations of compounds 1 and 2 for 1, 2 and 3 days. Only DMSO was used in the “0 μM” sample, as a control. After addition of MTT, absorbance was measured at 570 nm to determine the levels of viable cells present. The histograms show the absorbance obtained for each condition normalized to the absorbance in the absence of the compounds. Error bars represent standard error from 3 measurements.
MTT Assay—The cytotoxicity of the compounds was measured using the 3-(4,5-dimethylthiazol-2-yl)-2,5-diphenyltetrazolium bromide (MTT) colorimetric assay. Cells were seeded in 96-well plates and treated with compounds or DMSO starting 3, 2 or 1 day before they reached 100% confluency. For the assay, MTT (Sigma-Aldrich, St. Louis, Mo.) was added at a final concentration of […] and incubated with the cells for 3 hours. The resulting formazan crystals were then solubilized by addition of 100% DMSO. The absorbance in each well was measured at 570 nm using an ELISA plate reader. The results were expressed as the ratio of the absorbance of the cells treated with the compounds and left untreated.

EphB2 = EphB2 tyrosine phosphorylation in COS7 cells; type: cell-based; settings: COS7 cells stimulated with ephrin-B2 Fc

Row | SMILES | overall tyrosine phosphorylation (COS and HT22 cells) | toxicity, cell viability by MTT (HT22 neuronal cells) | phosphorylation of endogenous EphB2 (EphB2)
1 | Cc1ccc(C)n1-c1ccc(C(=O)O)c(O)c1 [compound 1, 4-(2,5-dimethyl-pyrrol-1-yl)-2-hydroxy-benzoic acid] | did not inhibit | did not reveal any toxicity | did not inhibit
2 | Cc1ccc(C)n1-c1ccc(O)c(C(=O)O)c1 [compound 2, 5-(2,5 dimethyl-pyrrol-1-yl)-2-hydroxy-benzoic acid] | did not inhibit | did not reveal any toxicity | did not inhibit
